One data set concerns bacteria. Conditions: literature statement; cited from earlier work.
The test system of data set [1] is methicillin-resistant S. aureus (MRSA). In words: biofilm inhibition, crystal violet reporter assay. The class given is cell-based. Background: In a reporter assay the amount or activity of a reporter protein is the signal.
Data set [2] has as its system S. aureus strains 29213, 29740, and 25923. In words: testing of the library on S. aureus strains. It counts as cell-based. The following applies: refers to Tables 2 and 3, not given.
The next data set relates to S. epidermidis. Briefly: biofilm inhibition, crystal violet reporter assay. It counts as cell-based.
The test system of data set [3] is vancomycin-resistant Enterococcus faecium (VRE). In words: biofilm inhibition, crystal violet reporter assay. The class given is cell-based.
Data set [4] deals with R. salexigens. In words: biofilm inhibition, crystal violet reporter assay. It counts as cell-based, Rhodospirillum salexigens.
Data set [5] relates to multi-drug resistant Acinetobacter baumannii (MDRAB). In words: biofilm inhibition, crystal violet reporter assay. It counts as cell-based.
In the next data set the test system is E. coli. Briefly: biofilm inhibition, crystal violet reporter assay. The class given is cell-based.
Data set [6] has as its system R. salexigens. The following applies: reported by Yamada et al.; cited from earlier work.

The values below come from patent US9439436B2, “Use of aryl carbamates in agriculture and other plant-related areas” (North Carolina State University, priority 2010, dated 2016).

By melting point is commonly meant the temperature, or range, at which the solid turns liquid.

As to `CC(C)CCC[C@@H](C)C1CCC2[C@@H]3CC=C4C[C@@H](OC(=O)N5CCCc6ccccc65)CC[C@]4(C)[C@H]3CC[C@]12C` (some centres unmarked), the melting point fell in the range of 107 to 110 °C.
The same measure, in the same setting: for `CCOC(=O)NCCc1ccc(Br)cc1` [Compound 11d, ethyl 4-bromophenethylcarbamate] the value was 63 to 65 °C.
Regarding `Cc1ccc(C(C)C)c(O)c1` [thymol], the antimicrobial activity result in the data set on bacteria is “known to possess antimicrobial activity”.
With `CCNC(=O)NCCc1c[nH]c2ccccc12` [Compound 10g, 1-(2-(1H-indol-3-yl)ethyl)-3-ethylurea], the melting point was 109 to 112 °C.
Same read-out and setting: for `O=C(NC1Cc2ccccc2C1)OCc1ccccc1` [Compound 3c, benzyl 2,3-dihydro-1H-inden-2-ylcarbamate] the value was 159 to 161 °C.
For the compound `CC(C)[C@@H]1CC[C@@H](C)C[C@H]1OC(=O)NCCc1ccccn1` [Compound 9a, (1R, 2 S, 5R)-2-isopropyl-5-methylcyclohexyl 2-(pyridin-2-yl)ethylcarbamate], the melting point was 59 to 63 °C. Besides, in [1] (refers to Tables 2 and 3, not given), the “IC50 values against MRSA (in words)” value is recorded as “lowest IC50 values”. The “activity against 29213, 29740, and 25923 (in words)” value in data set [2] is reported as “worked well”.
`CC(C)[C@@H]1CC[C@@H](C)C[C@H]1OC(=O)NCCc1ccc(Br)cc1` [Compound 11a, (1R, 2 S, 5R)-2-isopropyl-5-methylcyclohexyl 4-bromophenethylcarbamate] showed a melting point of 104 to 106 °C.
Same read-out and setting: the figure for `CCNC(=O)NC1Cc2ccccc2C1` [Compound 3g, 1-(2,3-dihydro-1H-inden-2-yl)-3-ethylurea] is 117 °C; for `CC(C)CCC[C@@H](C)C1CCC2[C@@H]3CC=C4C[C@@H](OC(=O)NCCCc5ccccc5)CC[C@]4(C)[C@H]3CC[C@]12C` (some centres unmarked) it is 87 to 89 °C; for `CCNC(=S)NCCc1ccccc1` [Compound 2h, 1-ethyl-3-phenethylthiourea] it is 56 to 58 °C.
Take `CCNC(=O)NCCc1ccc(N)cc1` [Compound 8g, 1-(4-aminophenethyl)-3-ethylurea]: the melting point lay within 101 to 103 °C.
`CC(C)(C)OC(=O)NCCn1nccn1` [Compound 5e, tert-butyl 2-(2H-1,2,3-triazol-2-yl)ethylcarbamate] gave a melting point of 64 to 66 °C.
In turn, `CC(C)[C@@H]1CC[C@@H](C)C[C@H]1OC(=O)NCCCc1ccccc1` [Compound 4a, (1R, 2 S, 5R)-2-isopropyl-5-methylcyclohexyl 3-phenylpropylcarbamate] returned a melting point of 75 to 78 °C.
Compound `CCNC(=O)NCCc1ccc(Br)cc1` [Compound 11g, 1-(4-bromophenethyl)-3-ethylurea] displayed a melting point of 137 to 139 °C.
The compound `CCSC(=O)NC1Cc2ccccc2C1` [Compound 3b, S-ethyl 2,3-dihydro-1H-inden-2-ylcarbamothioate] showed a melting point of 107 to 110 °C.
Consider `CC1CCC(C(C)C)C(O)C1` (single isomer, unassigned; (-)) [(−)-menthol], for which, in the data set with bacteria, the antimicrobial activity result is recorded as “known to possess antimicrobial activity”.
Compound `CC(C)CCC[C@@H](C)C1CCC2[C@@H]3CC=C4C[C@@H](OC(=O)NCCc5ccc(Br)cc5)CC[C@]4(C)[C@H]3CC[C@]12C` (some centres unmarked) had a melting point of 142 to 145 °C.
Compound `CC(C)CCC[C@@H](C)C1CCC2[C@@H]3CC=C4C[C@@H](OC(=O)N5CCc6ccccc65)CC[C@]4(C)[C@H]3CC[C@]12C` (some centres unmarked) came in with a melting point of 157 to 159 °C.
In the case of `CCNC(=O)NCCCc1ccccc1` [Compound 4g, 1-ethyl-3-(3-phenylpropyl)urea], the melting point was found to be 48 °C.
Take `CCNC(=S)N1CCc2ccccc21` [Compound 6h, N-ethylindoline-1-carbothioamide]: the melting point lay in the range of 88 to 91 °C.
Same read-out and setting: the figure for `CC(C)[C@@H]1CC[C@@H](C)C[C@H]1OC(=O)NCCc1ccccc1` [Compound 2a, (1R, 2 S, 5R)-2-isopropyl-5-methylcyclohexyl phenethylcarbamate] is 84 to 86 °C; for `CC(C)CCC[C@@H](C)C1CCC2[C@@H]3CC=C4C[C@@H](OC(=O)NC5Cc6ccccc6C5)CC[C@]4(C)[C@H]3CC[C@]12C` (some centres unmarked) it is 114 to 116 °C.
As to `CCOC(=O)NCCc1ccccc1` [Compound 2d, ethyl N-(2-phenethyl) carbamate], the “% Inhibition (200 μM 2d) of biofilm formation” value in the data set on S. epidermidis is recorded as 63.1%; in [1] (200 μM, MRSA), 68.1%; in [3] it was 80.2%; in the data set on R. salexigens [4], 59.7%; in [5], 52.0%; in the data set with E. coli, 40.8%. Besides, the “antibiofilm activity against Rhodospirillum salexigens” value in the data set with R. salexigens [6] is reported as “moderate antibiofilm activity”.
In turn, `CCSC(=O)NCCc1c[nH]c2ccccc12` [Compound 10b, S-ethyl 2-(1H-indol-3-yl)ethylcarbamothioate] showed a melting point of 68 to 70 °C.
On to `CC(C)(C)OC(=O)NC1Cc2ccccc2C1` [Compound 3e, tert-butyl 2,3-dihydro-1H-inden-2-ylcarbamate], for which the melting point was 51 to 53 °C.
As for `CCNC(=S)NCCCc1ccccc1` [Compound 4h, 1-ethyl-3-(3-phenylpropyl)thiourea], the melting point fell in the range of 51 to 53 °C.
On the same count and under the same terms, for `CCNC(=O)NCCn1nccn1` [Compound 5g, 1-(2-(2H-1,2,3-triazol-2-yl)ethyl)-3-ethylurea] the value was 109 °C; for `COc1ccc(CCNC(=O)O[C@@H]2C[C@H](C)CC[C@H]2C(C)C)cc1` [Compound 12a, (1R, 2 S, 5R)-2-isopropyl-5-methylcyclohexyl 4-methoxyphenethylcarbamate], 95 to 98 °C.
`CC(C)CCC[C@@H](C)C1CCC2[C@@H]3CC=C4C[C@@H](OC(=O)NCCc5ccccc5)CC[C@]4(C)[C@H]3CC[C@]12C` (some centres unmarked): the melting point is 74 to 76 °C.
For the compound `CCNC(=O)NCCc1ccccc1` [Compound 2g, 1-ethyl-3-phenethylurea], the melting point was in the range of 75 to 77 °C.
`CC(C)[C@H]1CC[C@H](C)C[C@@H]1OC(=O)NCCc1ccccn1` [Compound 9k, (1 S,2R, 5 S)-2-isopropyl-5-methylcyclohexyl 2-(pyridin-2-yl)ethylcarbamate]: the melting point was in the range of 57 to 59 °C.
For the compound `Cc1ccc(C(C)C)cc1O` [carvacrol], the antimicrobial activity result in the data set on bacteria is reported as “known to possess antimicrobial activity”.
Compound `CCNC(=S)NC1Cc2ccccc2C1` [Compound 3h, 1-(2,3-dihydro-1H-inden-2-yl)-3-ethylthiourea] registered a melting point of 87 to 91 °C.
Same read-out and setting: the figure for `CCNC(=S)NCCn1nccn1` [Compound 5h, 1-(2-(2H-1,2,3-triazol-2-yl)ethyl)-3-ethylthiourea] is 91 to 93 °C.
As to `Nc1ccc(CCNC(=O)OCc2ccccc2)cc1` [Compound 8c, benzyl 4-aminophenethylcarbamate], the melting point was in the range of 70 to 73 °C.
In the case of `CC(C)CCC[C@@H](C)C1CCC2[C@@H]3CC=C4C[C@@H](OC(=O)NCCn5nccn5)CC[C@]4(C)[C@H]3CC[C@]12C` (some centres unmarked), the melting point was 135 to 139 °C.
For the compound `CCNC(=O)N1CCc2ccccc21` [Compound 6g, N-ethylindoline-1-carboxamide], the melting point lay in the range of 111 to 113 °C.
In turn, `CCNC(=S)N1CCCc2ccccc21` [Compound 7h, N-ethyl-3,4-dihydroquinoline-1(2H)-carbothioamide] came in with a melting point of 55 to 57 °C.
Same read-out and setting: for `CC(C)[C@@H]1CC[C@@H](C)C[C@H]1OC(=O)NC1Cc2ccccc2C1` [Compound 3a, (1R, 2 S, 5R)-2-isopropyl-5-methylcyclohexyl 2,3-dihydro-1H-inden-2-ylcarbamate] the value was 167 to 170 °C.
